Test results published in patent US10457707B2, “Substituted urea depsipeptide analogs as activators of the CLPP endopeptidase” (priority 2015, dated 2019).
*1 amine or outer side, *2 acyl side, *3 side chain or, on linkers, in order; H or OH if unused. Where a SMILES comes first, the peptide text is derived from it. Bridges are numbered along the chain shown (N, C = ends). [ ]: non-standard residue; d: D form. The star is where a group is joined. Piperazine(2S-CO,4-Me) = CN1CCN[C@H](C(=O)O)C1; NH(1,3-benzodioxol-5-yl) = c1cc2c(cc1N*)OCO2; Phe(3,5-F2) = N[C@@H](Cc1cc(F)cc(F)c1)C(=O)O; NH(4-OCF3-phenyl) = FC(F)(F)Oc1ccc(N*)cc1; Morpholine(3S-CO) = O=C(O)[C@@H]1COCCN1; Pro(4S-Me) = C[C@@H]1CN[C@H](C(=O)O)C1; NH(4-Cl-2-F-phenyl) = Fc1cc(Cl)ccc1N*; Pro(4R-Me) = C[C@H]1CN[C@H](C(=O)O)C1; Hyp = O=C(O)[C@@H]1C[C@@H](O)CN1; aThr = C[C@H](O)[C@H](N)C(=O)O; Pip = O=C(O)[C@@H]1CCCCN1; X8 = c1cc2c(cc1N*)CCO2; X1 = N#Cc1cc(N*)ccc1F; CO = O=C([*:1])[*:2]

What follows are molecules tested against T1, Sa-ClpP (Staphylococcus aureus, UniProt Q2G036) (assay: Sa-ClpP casein-BODIPY ClpP activation assay, method variant not marked in Table 5). Settings: not given.
T1 construct: made in house; host or cells: E. coli BL21(DE3)
T1 sequence (Q2G036 1-195): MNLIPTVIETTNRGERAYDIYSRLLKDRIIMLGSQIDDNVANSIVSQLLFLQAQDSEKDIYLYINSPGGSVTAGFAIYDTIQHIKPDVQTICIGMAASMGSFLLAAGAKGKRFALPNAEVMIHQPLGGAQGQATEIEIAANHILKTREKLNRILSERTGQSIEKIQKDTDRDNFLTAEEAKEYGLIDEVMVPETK
Assay type: biochemical, S. aureus
How it was run: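 EC50 for activation derived by dose-response fitting of casein digestion rates, run in triplicate. Conditions: 37° C, pH 8 buffer with 200 mM KCl and 1 mM TCEP, 10 μM Sa-ClpP, 25 μg/ml BODIPY FL casein, compound at 0-1000 μM; signal at 485/528 nm followed 45 min.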

Compound	EC50 [nM]
C[C@@H]1C[C@H]2C(=O)O[C@@H](C)[C@H](NC(=O)[C@H](Cc3cc(F)cc(F)c3)NC(=O)Nc3ccc(Cl)cc3F)C(=O)N3CCC[C@H]3C(=O)N3CCOC[C@H]3C(=O)N[C@@H](C)C(=O)N2C1 [Compound 314, (S)-2-(3-(4-chloro-2-fluorophenyl)ureido)-3-(3,5-difluorophenyl)-N-((6aS,12S,13S,15aS,17R,21S,23aS)-13,17,21-trimethyl-6,11,15,20,23-pentaoxooctadecahydro-6H,11H,15H-[1,4]oxazino[3,4-i]dipyrrolo[2,1-c:2′,1′-l][1]oxa[4,7,10,13]tetraazacyclo-hexadecin-12-yl)propanamide] ({NH(4-Cl-2-F-phenyl)-CO}-[Phe(3,5-F2)][aThr]P[Morpholine(3S-CO)]A[Pro(4R-Me)]; ester 2-C)	400 ± 10
C[C@@H]1C[C@H]2C(=O)O[C@@H](C)[C@H](NC(=O)[C@H](Cc3cc(F)cc(F)c3)NC(=O)Nc3ccc(Cl)cc3F)C(=O)N3CCC[C@H]3C(=O)N3CCCC[C@H]3C(=O)N[C@@H](C)C(=O)N2C1 [Compound 307, (S)-2-(3-(4-chloro-2-fluorophenyl)ureido)-3-(3,5-difluorophenyl)-N-((2R,6S,8aS,14aS,20S,21S,23aS)-2,6,21-trimethyl-5,8,14,19,23-pentaoxooctadecahydro-1H,5H,14H,19H-pyrido[2,1-i]dipyrrolo[2,1-c:2′,1′-l][1]oxa[4,7,10,13]tetraazacyclo-hexadecin-20-yl)propanamide] ({NH(4-Cl-2-F-phenyl)-CO}-[Phe(3,5-F2)][aThr]P[Pip]A[Pro(4R-Me)]; ester 2-C)	440 ± 30
C[C@@H]1C[C@H]2C(=O)OC[C@H](NC(=O)[C@H](Cc3cc(F)cc(F)c3)NC(=O)Nc3ccc(Cl)cc3F)C(=O)N3CCC[C@H]3C(=O)N3CCN(C)C[C@H]3C(=O)N[C@@H](C)C(=O)N2C1 [Compound 330, (S)-2-(3-(4-chloro-2-fluorophenyl)ureido)-3-(3,5-difluorophenyl)-N-((6aS,12S,15aS,17R,21S,23aS)-2,17,21-trimethyl-6,11,15,20,23-pentaoxooctadecahydro-2H,6H,11H,15H-pyrazino[2,1-i]dipyrrolo[2,1-c:2′,1′-l][1]oxa[4,7,10,13]tetraazacyclohexadecin-12-yl)propanamide] ({NH(4-Cl-2-F-phenyl)-CO}-[Phe(3,5-F2)]SP[Piperazine(2S-CO,4-Me)]A[Pro(4R-Me)]; ester 2-C)	290 ± 20
C[C@@H]1C[C@H]2C(=O)O[C@@H](C)[C@H](NC(=O)[C@H](Cc3cc(F)cc(F)c3)NC(=O)Nc3ccc(F)c(C#N)c3)C(=O)N3C[C@H](O)C[C@H]3C(=O)N3CCOC[C@H]3C(=O)N[C@@H](C)C(=O)N2C1 [Compound 326, (S)-2-(3-(3-cyano-4-fluorophenyl)ureido)-3-(3,5-difluorophenyl)-N-((6aS,8R,12S,13S,15aS,17R,21S,23aS)-8-hydroxy-13,17,21-trimethyl-6,11,15,20,23-pentaoxooctadecahydro-6H,11H,15H-[1,4]oxazino[3,4-i]dipyrrolo[2,1-c:2′,1′-l][1]oxa[4,7,10,13]tetraazacyclo-hexadecin-12-yl)propanamide] ({X1-CO}-[Phe(3,5-F2)][aThr][Hyp][Morpholine(3S-CO)]A[Pro(4R-Me)]; ester 2-C)	460 ± 40
C[C@@H]1C[C@H]2C(=O)O[C@@H](C)[C@H](NC(=O)[C@H](Cc3cc(F)cc(F)c3)NC(=O)Nc3ccc4c(c3)OCO4)C(=O)N3C[C@H](O)C[C@H]3C(=O)N3CCOC[C@H]3C(=O)N[C@@H](C)C(=O)N2C1 [Compound 319, (S)-2-(3-(benzo[d][1,3]dioxol-5-yl)ureido)-3-(3,5-difluorophenyl)-N-((6aS,8R,12S,13S,15aS,17R,21S,23aS)-8-hydroxy-13,17,21-trimethyl-6,11,15,20,23-pentaoxooctadecahydro-6H,11H,15H-[1,4]oxazino[3,4-i]dipyrrolo[2,1-c:2′,1′-l][1]oxa[4,7,10,13]tetraazacyclo-hexadecin-12-yl)propanamide] ({NH(1,3-benzodioxol-5-yl)-CO}-[Phe(3,5-F2)][aThr][Hyp][Morpholine(3S-CO)]A[Pro(4R-Me)]; ester 2-C)	450 ± 40

Same assay, conditions: values without ** or † mark; assay variant not stated; read-out: ClpP Activation EC50

Compound	EC50 [nM]
Cc1ccc(NC(=O)N[C@@H](Cc2ccccc2)C(=O)N[C@H]2COC(=O)[C@@H]3C[C@@H](C)CN3C(=O)[C@H](C)NC(=O)[C@@H]3CCCCN3C(=O)[C@@H]3CCCN3C2=O)cc1C [Compound 206, (S)—N-((2R,6S,8aS,14aS,20S,23aS)-2,6-dimethyl-5,8,14,19,23-pentaoxooctadecahydro-1H,5H,14H,19H-pyrido[2,1-i]dipyrrolo[2,1-c:2′,1′-l][1]oxa[4,7,10,13]tetraazacyclohexadecin-20-yl)-2-(3-(3,4-dimethylphenyl)ureido)-3-phenylpropanamide]	1600 ± 300
C[C@H]1C[C@H]2C(=O)O[C@@H](C)[C@H](NC(=O)[C@H](Cc3cc(F)cc(F)c3)NC(=O)Nc3ccc(OC(F)(F)F)cc3)C(=O)N3CCC[C@H]3C(=O)N3CCOC[C@H]3C(=O)N[C@@H](C)C(=O)N2C1 [Compound 201, (S)-3-(3,5-difluorophenyl)-2-(3-(4-(trifluoromethoxy)phenyl)ureido)-N-((6aS,12S,13S,15aS,17S,21S,23aS)-13,17,21-trimethyl-6,11,15,20,23-pentaoxooctadecahydro-6H,11H,15H-[1,4]oxazino[3,4-i]dipyrrolo[2,1-c:2′,1′-l][1]oxa[4,7,10,13]tetraazacyclohexadecin-12-yl)propanamide] ({NH(4-OCF3-phenyl)-CO}-[Phe(3,5-F2)][aThr]P[Morpholine(3S-CO)]A[Pro(4S-Me)]; ester 2-C)	330 ± 10
Cc1ccc(NC(=O)N[C@@H](Cc2cc(F)cc(F)c2)C(=O)N[C@H]2COC(=O)[C@@H]3C[C@@H](C)CN3C(=O)[C@H](C)NC(=O)C3CCCCN3C(=O)[C@@H]3C[C@@H](O)CN3C2=O)cc1 (stereo partly drawn) [Compound 323, (S)-3-(3,5-difluorophenyl)-N-((2R,6S,8aR,14aS,16R,20S,23aS)-16-hydroxy-2,6-dimethyl-5,8,14,19,23-pentaoxooctadecahydro-1H,5H,14H,19H-pyrido[2,1-i]dipyrrolo[2,1-c:2′,1′-l][1]oxa[4,7,10,13]tetraazacyclohexadecin-20-yl)-2-(3-(p-tolyl)ureido)propanamide]	670 ± 20
C[C@@H]1C[C@H]2C(=O)O[C@@H](C)[C@H](NC(=O)[C@H](Cc3cc(F)cc(F)c3)NC(=O)Nc3ccc4c(c3)CCO4)C(=O)N3CCC[C@H]3C(=O)N3CCCC[C@H]3C(=O)N[C@@H](C)C(=O)N2C1 [Compound 305, (S)-3-(3,5-difluorophenyl)-2-(3-(2,3-dihydrobenzofuran-5-yl)ureido)-N-((2R,6S,8aS,14aS,20S,21S,23aS)-2,6,21-trimethyl-5,8,14,19,23-pentaoxooctadecahydro-1H,5H,14H,19H-pyrido[2,1-i]dipyrrolo[2,1-c:2′,1′-l][1]oxa[4,7,10,13]tetraazacyclo-hexadecin-20-yl)propanamide] ({X8-CO}-[Phe(3,5-F2)][aThr]P[Pip]A[Pro(4R-Me)]; ester 2-C)	480 ± 20
